Reference: paper PMC8383266 (Biochemistry, 2021)

Molecular target: BlaC (β-lactamase) (Mycobacterium tuberculosis, UniProt P9WKD3, G144S)
Assay type: biochemical

**Q.** How did the “activity of BlaC G132S in the presence of avibactam (Figure S13, not shown)” value turn out when `NC(=O)[C@@H]1CC[C@@H]2CN1C(=O)N2OS(=O)(=O)O` [avibactam] was run?
**A.** we found BlaC G132S is also more sensitive to avibactam
